Test [1] concerns the target T1, PDE3A catalytic zone (Homo sapiens, UniProt Q14432).
T1 construct: Regarding the cDNAs of the PDE3A catalytic zone; made in house; host or cells: Sf9 insect cells (baculovirus, Bac-to-Bac / Gateway)
Put plainly: Phosphodiesterase-inhibitory activity, PDE3. The test is classed as biochemical. Conditions: human-derived recombinant PDE protein, [3H]-cAMP, 30° C. for 20 minutes; read-out: IC50 (μmol/L) PDE3.

The target of test [2] is T2, PDE4Bcat (Homo sapiens, UniProt Q07343).
T2 construct: made in house; host or cells: Sf9 insect cells (baculovirus, Bac-to-Bac / Gateway)
T2 sequence (Q07343 330-659 limits assumed): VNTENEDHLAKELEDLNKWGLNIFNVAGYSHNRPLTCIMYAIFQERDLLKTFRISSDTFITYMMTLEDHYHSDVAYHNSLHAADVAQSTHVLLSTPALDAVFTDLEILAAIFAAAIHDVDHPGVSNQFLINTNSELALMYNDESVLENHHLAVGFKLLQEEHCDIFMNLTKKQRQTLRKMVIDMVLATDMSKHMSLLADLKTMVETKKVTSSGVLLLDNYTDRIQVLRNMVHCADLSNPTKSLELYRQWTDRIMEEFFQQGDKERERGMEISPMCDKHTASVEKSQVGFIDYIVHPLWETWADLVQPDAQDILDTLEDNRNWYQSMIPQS
As to the kind of experiment: Phosphodiesterase-inhibitory activity, PDE4. The test is classed as biochemical. As to conditions: human-derived recombinant PDE protein, [3H]-cAMP, 30° C. for 20 minutes; read-out: IC50 (μmol/L) PDE4.

Some results are limits rather than exact numbers.

The record followed here is patent publication US20110224250A1, “ISOQUINOLINE DERIVATIVE, AND PDE INHIBITOR COMPRISING SAME AS ACTIVE INGREDIENT” (priority 2008, published 2011).

T1 sequence (Q14432 674-1093 limits assumed): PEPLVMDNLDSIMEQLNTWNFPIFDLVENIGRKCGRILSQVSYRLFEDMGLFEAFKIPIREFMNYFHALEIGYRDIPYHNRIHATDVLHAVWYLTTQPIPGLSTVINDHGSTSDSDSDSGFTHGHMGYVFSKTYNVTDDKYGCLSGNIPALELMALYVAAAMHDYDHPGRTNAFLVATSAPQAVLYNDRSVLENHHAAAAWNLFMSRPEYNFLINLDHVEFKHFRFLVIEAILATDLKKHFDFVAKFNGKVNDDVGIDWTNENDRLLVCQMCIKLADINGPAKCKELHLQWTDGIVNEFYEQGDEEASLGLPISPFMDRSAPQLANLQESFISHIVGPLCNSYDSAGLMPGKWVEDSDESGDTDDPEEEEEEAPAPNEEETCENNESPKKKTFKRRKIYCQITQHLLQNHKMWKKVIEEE

For `COc1ccc(-c2ccc3cnccc3c2)c2cc(C3CC3)nn12` [Example 53, 6-(2-Cyclopropyl-7-methoxypyrazolo[1,5-a]pyridin-4-yl)isoquinoline], the IC50 in test [1] was 1 to 100 µmol/L; in test [2], less than 0.01 µmol/L.

On to `CCc1cc2c(-c3ccc4cnccc4c3)ccc(OC)n2n1` [Example 54, 6-(2-Ethyl-7-methoxypyrazolo[1,5-a]pyridin-4-yl)isoquinoline], for which the figures for the IC50 in test [1] and in test [2] were 1 to 100 µmol/L and less than 0.01 µmol/L, respectively.

Take `COc1ccc(-c2ccc3c[n+]([O-])ccc3c2)c2cc(C(F)(F)F)nn12` [Example 48, 6-(7-Methoxy-2-trifluoromethylpyrazolo[1,5-a]pyridin-4-yl)isoquinoline 2-oxide]: the IC50 in test [1] was 1 to 100 µmol/L; in test [2], less than 0.01 µmol/L.

Consider `COc1ccc(-c2ccc3cncc(Cl)c3c2)c2cc(C(F)(F)F)nn12` [Example 49, 4-Chloro-6-(7-methoxy-2-trifluoromethylpyrazolo[1,5-a]pyridin-4-yl)isoquinoline], for which the IC50 was 1 to 100 µmol/L in test [1] and less than 0.01 µmol/L in test [2].

For the molecule `CNc1ccc(-c2ccc3cnccc3c2)n2c(Cl)c(C(F)(F)F)nc12` [Example 58, 3-Chloro-5-(isoquinolin-6-yl)-N-methyl-2-trifluoromethylimidazo[1,2a]pyridine-8-amine], the IC50 is no less than 100 µmol/L in test [1] and less than 0.01 µmol/L in test [2].

With `CNc1ccc(-c2ccc3cnccc3c2)c2cc(C(F)(F)F)nn12` [Example 55, 4-(Isoquinolin-6-yl)-N-methyl-2-trifluoromethylpyrazolo[1,5-a]pyridine-7-amine], the IC50 in test [1] was no less than 100 µmol/L; in test [2] it was less than 0.01 µmol/L.

As to `COc1ccc(-c2ccc3cnccc3c2)c2c(Cl)c(C(F)(F)F)nn12` [Example 51, 6-(3-Chloro-7-methoxy-2-trifluoromethylpyrazolo[1,5-a]pyridin-4-yl)isoquinoline], the IC50 was no less than 100 µmol/L in test [1] and less than 0.01 µmol/L in test [2].

As for `COc1ccc(-c2ccc3cnccc3c2Cl)c2cc(C(F)(F)F)nn12` [Example 50, 5-Chloro-6-(7-methoxy-2-trifluoromethylpyrazolo[1,5-a]pyridin-4-yl)isoquinoline], the IC50 in test [1] was 1 to 100 µmol/L; in test [2], less than 0.01 µmol/L.

As to `COc1ccc(-c2ccc3cnccc3c2)n2c(Cl)c(C(F)(F)F)nc12` [Example 57, 6-(3-Chloro-8-methoxy-2-trifluoromethylimidazo[1,2-a]pyridin-5-yl)isoquinoline], the IC50 in test [1] is no less than 100 µmol/L; in test [2] it was less than 0.01 µmol/L.

On to `CNc1ccc(-c2ccc3cnccc3c2)c2c(Cl)c(C(F)(F)F)nn12` [Example 56, 3-Chloro-4-(isoquinolin-6-yl)-N-methyl-2-trifluoromethylpyrazolo[1,5-a]pyridine-7-amine], for which the results for the IC50 in test [1] and in test [2] were no less than 100 µmol/L and less than 0.01 µmol/L, respectively.

`COc1ccc(-c2ccc3cnccc3c2)c2cc(C(F)(F)F)nn12` [Example 47, 6-(7-Methoxy-2-trifluoromethylpyrazolo[1,5-a]pyridin-4-yl)isoquinoline]: the IC50 in test [1] was no less than 100 µmol/L; in test [2], less than 0.01 µmol/L.

Turning to `COc1ccc(-c2ccc3cncc(Cl)c3c2)c2c(Cl)c(C(F)(F)F)nn12` [Example 52, 4-Chloro-6-(3-chloro-7-methoxy-2-trifluoromethylpyrazolo[1,5-a]pyridin-4-yl)isoquinoline], the IC50 in test [1] was no less than 100 µmol/L; in test [2] it was less than 0.01 µmol/L.

As to `COc1ccc(-c2ccc3cnccc3c2)c2cccnc12` [Example 59, 5-(Isoquinolin-6-yl)-8-methoxyquinoline], the IC50 in test [1] was 1 to 100 µmol/L; in test [2], less than 0.01 µmol/L.
